Reference: PubChem BioAssay AID248 (DTP/NCI, 2004)
Toxic doses and inconclusive results are not listed. Rule as the data show it: active = T/C of 150% or more; inactive = T/C below 125%.

Test system: L1210 leukemia ip in BDF1 mice, survival T/C
Assay: NCI In Vivo Anticancer Drug Screen. Data for tumor model L1210 Leukemia (intraperitoneal) in B6D2F1 (BDF1) mice
Settings: endpoint: mean survival time, higher = longer survival
In short: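 Survival endpoint. Drug-treated group vs vehicle group, expressed as T divided by C. Tumor passaged by transplantation.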

[1] = dose: 100.0 mg/kg/injection, schedule: Q04DX003 (ip), vehicle: saline with Tween-80
[2] = dose: 100.0 mg/kg/injection, schedule: Q01DX009 (ip), vehicle: saline
[3] = dose: 200.0 mg/kg/injection, schedule: Q01DX009 (ip), vehicle: saline
[4] = dose: 400.0 mg/kg/injection, schedule: Q01DX009 (ip), vehicle: saline
[5] = dose: 100.0 mg/kg/injection, schedule: Q04DX003 (ip), vehicle: saline
[6] = dose: 200.0 mg/kg/injection, schedule: Q04DX003 (ip), vehicle: saline
[7] = dose: 400.0 mg/kg/injection, schedule: Q04DX003 (ip), vehicle: saline
[8] = dose: 100.0 mg/kg/injection, schedule: Q04DX002 (ip), vehicle: saline
[9] = dose: 200.0 mg/kg/injection, schedule: Q04DX002 (ip), vehicle: saline
[10] = dose: 400.0 mg/kg/injection, schedule: Q04DX002 (ip), vehicle: saline
[11] = dose: 100.0 mg/kg/injection, schedule: Q01DX001 (ip), vehicle: saline

Measured: T/C

CC(C)=NNC(=O)c1ccc[n+](Cc2ccccc2)c1
inactive: dose: 75.0 mg/kg/injection, schedule: Q01DX001 (ip), vehicle: saline 102 % of control | dose: 150.0 mg/kg/injection, schedule: Q01DX001 (ip), vehicle: saline 98 % of control | dose: 300.0 mg/kg/injection, schedule: Q01DX001 (ip), vehicle: saline 105 % of control

ClC(Cl)(Cl)c1cc(C(Cl)(Cl)Cl)nc(NCCCN2CCCC2)n1
inactive: dose: 100.0 mg/kg/injection, schedule: Q01DX009 (ip), vehicle: saline with Tween-80 99 % of control | dose: 200.0 mg/kg/injection, schedule: Q01DX009 (ip), vehicle: saline with Tween-80 96 % of control | dose: 400.0 mg/kg/injection, schedule: Q01DX009 (ip), vehicle: saline with Tween-80 95 % of control

CCCOCC(O)C[As](=O)(O)c1cccc(Cl)c1 (stereo not drawn)
inactive: dose: 6.25 mg/kg/injection, schedule: Q01DX001 (ip), vehicle: saline with Tween-80 104 % of control | dose: 12.5 mg/kg/injection, schedule: Q01DX001 (ip), vehicle: saline with Tween-80 102 % of control | dose: 25.0 mg/kg/injection, schedule: Q01DX001 (ip), vehicle: saline with Tween-80 100 % of control

CC1=C(C)CS(=O)(=O)C1
inactive: dose: 25.0 mg/kg/injection, schedule: Q04DX003 (ip), vehicle: saline with Tween-80 95 % of control | dose: 50.0 mg/kg/injection, schedule: Q04DX003 (ip), vehicle: saline with Tween-80 101 % of control | [1] 102 % of control

CC(=O)OCC1OC(N2C(=O)/C(=C/c3cccs3)SC2=S)C(OC(C)=O)C(OC(C)=O)C1OC(C)=O (stereo not drawn)
inactive: dose: 25.0 mg/kg/injection, schedule: Q01DX005 (ip), vehicle: other 96 % of control | dose: 50.0 mg/kg/injection, schedule: Q01DX005 (ip), vehicle: other 100 % of control | dose: 100.0 mg/kg/injection, schedule: Q01DX005 (ip), vehicle: other 97 % of control | dose: 200.0 mg/kg/injection, schedule: Q01DX005 (ip), vehicle: other 88 % of control

Cc1ccccc1[P+](Cc1ccccc1)(c1ccccc1C)c1ccccc1C
inactive: dose: 15.0 mg/kg/injection, schedule: Q01DX001 (ip), vehicle: carboxymethylcellulose (CMC) 96 % of control | dose: 30.0 mg/kg/injection, schedule: Q01DX001 (ip), vehicle: carboxymethylcellulose (CMC) 94 % of control | dose: 60.0 mg/kg/injection, schedule: Q01DX001 (ip), vehicle: carboxymethylcellulose (CMC) 94 % of control

CC(=O)NCC(C)C
inactive: [2] 101 % of control | [3] 108 % of control | [4] 105 % of control

CC(=O)c1ccc2c(c1)-c1ccccc1C(=O)C2=O
inactive: [1] 89 % of control | dose: 200.0 mg/kg/injection, schedule: Q04DX003 (ip), vehicle: saline with Tween-80 94 % of control | dose: 400.0 mg/kg/injection, schedule: Q04DX003 (ip), vehicle: saline with Tween-80 91 % of control

O=C(N1C(c2ccc(Cl)cc2)CC2(CC1c1ccc(Cl)cc1)SSC1(CC(c3ccc(Cl)cc3)N(C(=O)C(F)(F)F)C(c3ccc(Cl)cc3)C1)S2)C(F)(F)F (stereo not drawn)
inactive: [2] 102 % of control | [5] 95 % of control | [3] 98 % of control | [6] 97 % of control | [4] 105 % of control | [7] 95 % of control

CCN=C(N)SCCS(=O)(=O)O
inactive: [8] 98 % of control | [9] 95 % of control | [10] 92 % of control

c1ccc(Cc2ccccn2)nc1
inactive: dose: 100.0 mg/kg/injection, schedule: Q04DX003 (ip), vehicle: saline sonified 110 % of control | dose: 200.0 mg/kg/injection, schedule: Q04DX003 (ip), vehicle: saline sonified 104 % of control | dose: 400.0 mg/kg/injection, schedule: Q04DX003 (ip), vehicle: saline sonified 104 % of control

S=c1[nH]c2ccccc2c2ccccc12
inactive: dose: 50.0 mg/kg/injection, schedule: Q01DX009 (ip), vehicle: Klucel (hydroxypropylcellulose) (HPC) 96 % of control | dose: 100.0 mg/kg/injection, schedule: Q01DX009 (ip), vehicle: Klucel (hydroxypropylcellulose) (HPC) 105 % of control | dose: 100.0 mg/kg/injection, schedule: Q04DX003 (ip), vehicle: Klucel (hydroxypropylcellulose) (HPC) 97 % of control | dose: 200.0 mg/kg/injection, schedule: Q01DX009 (ip), vehicle: Klucel (hydroxypropylcellulose) (HPC) 97 % of control | dose: 200.0 mg/kg/injection, schedule: Q04DX003 (ip), vehicle: Klucel (hydroxypropylcellulose) (HPC) 90 % of control | dose: 400.0 mg/kg/injection, schedule: Q04DX003 (ip), vehicle: Klucel (hydroxypropylcellulose) (HPC) 95 % of control

O=C(Nc1cccc(F)c1)Oc1ccc(OCc2ccccc2)cc1
inactive: [8] 101 % of control | [9] 90 % of control | [10] 90 % of control

O=C(COc1cc(Cl)c(Cl)cc1Cl)Nc1ccccc1Br
inactive: dose: 100.0 mg/kg/injection, schedule: Q04DX002 (ip), vehicle: Klucel (hydroxypropylcellulose) (HPC) 95 % of control | dose: 200.0 mg/kg/injection, schedule: Q04DX002 (ip), vehicle: Klucel (hydroxypropylcellulose) (HPC) 98 % of control | dose: 400.0 mg/kg/injection, schedule: Q04DX002 (ip), vehicle: Klucel (hydroxypropylcellulose) (HPC) 106 % of control

C=CC(C)C1CCC2(C)C3=C(C(=O)CC12C)C1(C)C/C(=N/O)C(O)C(C)(C)C1=C(O)C3=O (stereo not drawn)
inactive: [5] 98 % of control | [6] 95 % of control | [7] 98 % of control

Cc1ccc(S(=O)(=O)N(CCCc2ccccc2)c2ccc(C(=O)NC(CCC(=O)O)C(=O)O)cc2)cc1 (stereo not drawn)
inactive: dose: 75.0 mg/kg/injection, schedule: Q01DX001 (ip), vehicle: gum acacia 101 % of control | dose: 150.0 mg/kg/injection, schedule: Q01DX001 (ip), vehicle: gum acacia 107 % of control | dose: 300.0 mg/kg/injection, schedule: Q01DX001 (ip), vehicle: gum acacia 93 % of control

NNc1ccccc1-c1nc(N)nc(N)n1
inactive: dose: 9.38 mg/kg/injection, schedule: Q01DX001 (ip), vehicle: other 109 % of control | dose: 18.75 mg/kg/injection, schedule: Q01DX001 (ip), vehicle: other 112 % of control | dose: 37.5 mg/kg/injection, schedule: Q01DX001 (ip), vehicle: other 118 % of control

OC(CN1CCCCC1)c1nc2ccccc2c2ccccc12 (stereo not drawn)
inactive: dose: 50.0 mg/kg/injection, schedule: Q01DX001 (ip), vehicle: saline 102 % of control | [11] 94 % of control

COc1ccc(Cl)cc1[N+](=O)[O-]
inactive: dose: 200.0 mg/kg/injection, schedule: Q01DX001 (ip), vehicle: Klucel (hydroxypropylcellulose) (HPC) 95 % of control | dose: 400.0 mg/kg/injection, schedule: Q01DX001 (ip), vehicle: Klucel (hydroxypropylcellulose) (HPC) 95 % of control

Clc1cc(/C=C/c2ccccc2)c2ccccc2n1
inactive: [11] 105 % of control | dose: 200.0 mg/kg/injection, schedule: Q01DX001 (ip), vehicle: saline 105 % of control | dose: 400.0 mg/kg/injection, schedule: Q01DX001 (ip), vehicle: saline 100 % of control

CC1=NCCN1CCNC(=O)c1ccc(C(=O)NCCN2CCN=C2C)cc1
inactive: dose: 5.0 mg/kg/injection, schedule: Q01DX001 (ip), vehicle: saline 103 % of control | dose: 10.0 mg/kg/injection, schedule: Q01DX001 (ip), vehicle: saline 101 % of control

O=S(=O)(O)SCC1=NCCN1
inactive: dose: 25.0 mg/kg/injection, schedule: Q04DX002 (ip), vehicle: saline 103 % of control | dose: 50.0 mg/kg/injection, schedule: Q04DX002 (ip), vehicle: saline 93 % of control | [8] 98 % of control

BrC1c2ccccc2-c2nc3ccccc3cc21 (stereo not drawn)
inactive: dose: 37.5 mg/kg/injection, schedule: Q01DX001 (ip), vehicle: Klucel (hydroxypropylcellulose) (HPC) 103 % of control | dose: 75.0 mg/kg/injection, schedule: Q01DX001 (ip), vehicle: Klucel (hydroxypropylcellulose) (HPC) 97 % of control | dose: 150.0 mg/kg/injection, schedule: Q01DX001 (ip), vehicle: Klucel (hydroxypropylcellulose) (HPC) 101 % of control
